Test results as given in patent US10259810B2, “N-sulfonylated pyrazolo[3,4-b]pyridin-6-carboxamides and method of use” (AbbVie S.à.r.l., priority 2015, dated 2019).

Key:
ΔF508-CFTR = biological target: T1, ΔF508-CFTR (Homo sapiens, UniProt P13569, DEL508-508); experiment: CFTR cell surface levels using HRP-tagged ΔF508-CFTR expressing CFBE cells, intrinsic corrector capacity; type: cell-based; set-up: % Activation: concentration or dose not given beside the values; settings: HRP-tagged ΔF508-CFTR expressing CFBE41o- cells, compound alone (intrinsic corrector capacity), 20 hours at 33° C.; for EC50: read-out: EC50
T1 construct: host or cells: CFBE41o-, doxycycline-inducible
T1 sequence (P13569 with tags, fused parts or gaps DEL508-508): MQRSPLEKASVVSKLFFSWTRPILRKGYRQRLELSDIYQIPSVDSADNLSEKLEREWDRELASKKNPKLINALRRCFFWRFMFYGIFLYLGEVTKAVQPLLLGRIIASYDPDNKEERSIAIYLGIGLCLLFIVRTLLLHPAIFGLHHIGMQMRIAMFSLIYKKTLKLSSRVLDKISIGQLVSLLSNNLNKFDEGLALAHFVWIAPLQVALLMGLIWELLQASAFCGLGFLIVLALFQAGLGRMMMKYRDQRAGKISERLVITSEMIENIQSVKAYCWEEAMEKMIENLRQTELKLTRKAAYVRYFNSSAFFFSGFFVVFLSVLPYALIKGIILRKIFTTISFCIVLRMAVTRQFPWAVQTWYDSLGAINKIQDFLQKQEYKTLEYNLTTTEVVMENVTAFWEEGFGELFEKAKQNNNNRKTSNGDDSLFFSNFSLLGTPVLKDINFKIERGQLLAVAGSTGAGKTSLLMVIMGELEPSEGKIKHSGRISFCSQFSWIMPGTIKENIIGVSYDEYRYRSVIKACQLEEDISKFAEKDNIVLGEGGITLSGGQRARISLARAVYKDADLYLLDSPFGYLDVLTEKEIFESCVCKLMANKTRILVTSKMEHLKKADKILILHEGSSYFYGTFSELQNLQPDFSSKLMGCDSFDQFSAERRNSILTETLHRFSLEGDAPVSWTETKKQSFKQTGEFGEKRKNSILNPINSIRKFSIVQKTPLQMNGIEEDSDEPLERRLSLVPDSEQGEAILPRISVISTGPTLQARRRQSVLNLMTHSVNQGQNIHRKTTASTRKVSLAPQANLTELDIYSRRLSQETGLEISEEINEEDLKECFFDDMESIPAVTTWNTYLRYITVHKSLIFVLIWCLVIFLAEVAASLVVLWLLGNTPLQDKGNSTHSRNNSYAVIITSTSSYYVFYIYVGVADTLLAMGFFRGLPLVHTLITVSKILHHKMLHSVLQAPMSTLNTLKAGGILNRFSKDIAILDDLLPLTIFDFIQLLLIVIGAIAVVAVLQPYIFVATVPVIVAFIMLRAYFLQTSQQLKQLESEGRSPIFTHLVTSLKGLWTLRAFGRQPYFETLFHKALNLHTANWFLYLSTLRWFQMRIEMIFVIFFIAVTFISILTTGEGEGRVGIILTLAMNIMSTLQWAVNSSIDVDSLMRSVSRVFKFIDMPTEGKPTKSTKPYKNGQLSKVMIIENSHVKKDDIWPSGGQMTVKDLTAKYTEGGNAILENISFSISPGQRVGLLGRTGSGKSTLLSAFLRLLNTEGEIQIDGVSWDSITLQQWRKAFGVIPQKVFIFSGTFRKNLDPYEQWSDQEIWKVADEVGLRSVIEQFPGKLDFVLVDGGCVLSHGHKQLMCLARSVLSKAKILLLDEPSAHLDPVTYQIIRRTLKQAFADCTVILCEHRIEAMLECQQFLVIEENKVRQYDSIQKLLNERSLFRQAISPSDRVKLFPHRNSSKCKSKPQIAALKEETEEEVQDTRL
Outline: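 Surface ΔF508-CFTR was measured as HRP chemiluminescence from an extracellular-loop-4 tag, expressed as percent activity between DMSO and a […] corrector control.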

CFTR ΔF508 = biological target: T2, CFTR ΔF508 (Homo sapiens, UniProt P13569, DEL508-508); experiment: Chronic TECC assay, primary bronchial epithelial cells of CF patients homozygous for CFTR ΔF508 (corrector, co-corrector and potentiator); type: cell-based; settings: chronic TECC, Ieq = calculations based on the maximum current
T2 construct: bronchial epithelial cells isolated from CF patients homozygous for the CFTR ΔF508 mutation; McGill University; Asterand; University of North Carolina hAEC-CF; host or cells: primary human bronchial epithelial cells from CF patients homozygous for ΔF508, differentiated at air-liquid interface
T2 sequence (P13569 with tags, fused parts or gaps DEL508-508): as above
Outline: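 Primary bronchial epithelial cells from ΔF508-homozygous CF patients on collagen IV-coated Transwells were chronically treated with test compound plus corrector and potentiator, which were re-added before recording. Ieq was derived from PD and Rt in NaCl-Ringer, pH 7.4, at 37° C, with apical amiloride and bilateral forskolin, recorded every 2 min over 20 min. Ieq increase was normalized to controls, and EC50 was taken from per-well concentrations.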

Row | SMILES | % Activation (ΔF508-CFTR) [%] | EC50 (ΔF508-CFTR) [nM] | EC50 (CFTR ΔF508; read-out: EC50 (nM) (Ieq*)) | % Activity at 1 μM (Ieq*) (CFTR ΔF508; test compound at 1 μM) [%]
1 | CS(=O)(=O)NC(=O)c1cc(-c2ccc(N3CCC(C#N)CC3)nc2)c2c(C3CCC3)nn(C3CCCCC3)c2n1 [Compound 104, 4-[6-(4-cyanopiperidin-1-yl)pyridin-3-yl]-3-cyclobutyl-1-cyclohexyl-N-(methanesulfonyl)-1H-pyrazolo[3,4-b]pyridine-6-carboxamide] | 239.6 | 497 | < 30 | 720
2 | Cc1nn(-c2ccccc2)c2nc(C(=O)NS(C)(=O)=O)cc(N3CCCCC3)c12 [Compound 13, N-(methanesulfonyl)-3-methyl-1-phenyl-4-(piperidin-1-yl)-1H-pyrazolo[3,4-b]pyridine-6-carboxamide] | 153.85 | 2360 |  | 
3 | CC(C)c1nn(-c2cccc(N3CCC3)c2)c2nc(C(=O)NS(C)(=O)=O)cc(-c3ccc(N4CCOCC4)cc3)c12 [Compound 10, 1-[3-(azetidin-1-yl)phenyl]-N-(methanesulfonyl)-4-[4-(morpholin-4-yl)phenyl]-3-(propan-2-yl)-1H-pyrazolo[3,4-b]pyridine-6-carboxamide] | 418.25 | 572 |  | 
4 | CC(C)c1nn(C2CCCCC2)c2nc(C(=O)NS(C)(=O)=O)cc(-c3cnc(N4CCOCC4)nc3)c12 [Compound 11, 1-cyclohexyl-N-(methanesulfonyl)-4-[2-(morpholin-4-yl)pyrimidin-5-yl]-3-(propan-2-yl)-1H-pyrazolo[3,4-b]pyridine-6-carboxamide] | 164.7 | 557 |  | 
